From PMC3773341 (Biology Open, 2013)

Key:
[1] = target: T1, BK channel (large-conductance Ca2+-activated K+ channel, BKCa, KCa1.1) (Homo sapiens, UniProt Q12791); assay: whole-cell patch clamp of T-type-activated BK current in LNCaP-α1H cells ([…] in LNCaP-NE cells); assay type: cell-based
T1 construct: gene KCNMA1

[2] = target: T1, BK channel (large-conductance Ca2+-activated K+ channel, BKCa, KCa1.1); assay: whole-cell patch clamp of endogenous BK current in LNCaP cells; current identity confirmed by si-hBK; assay type: cell-based

T1 sequence (Q12791 whole entry): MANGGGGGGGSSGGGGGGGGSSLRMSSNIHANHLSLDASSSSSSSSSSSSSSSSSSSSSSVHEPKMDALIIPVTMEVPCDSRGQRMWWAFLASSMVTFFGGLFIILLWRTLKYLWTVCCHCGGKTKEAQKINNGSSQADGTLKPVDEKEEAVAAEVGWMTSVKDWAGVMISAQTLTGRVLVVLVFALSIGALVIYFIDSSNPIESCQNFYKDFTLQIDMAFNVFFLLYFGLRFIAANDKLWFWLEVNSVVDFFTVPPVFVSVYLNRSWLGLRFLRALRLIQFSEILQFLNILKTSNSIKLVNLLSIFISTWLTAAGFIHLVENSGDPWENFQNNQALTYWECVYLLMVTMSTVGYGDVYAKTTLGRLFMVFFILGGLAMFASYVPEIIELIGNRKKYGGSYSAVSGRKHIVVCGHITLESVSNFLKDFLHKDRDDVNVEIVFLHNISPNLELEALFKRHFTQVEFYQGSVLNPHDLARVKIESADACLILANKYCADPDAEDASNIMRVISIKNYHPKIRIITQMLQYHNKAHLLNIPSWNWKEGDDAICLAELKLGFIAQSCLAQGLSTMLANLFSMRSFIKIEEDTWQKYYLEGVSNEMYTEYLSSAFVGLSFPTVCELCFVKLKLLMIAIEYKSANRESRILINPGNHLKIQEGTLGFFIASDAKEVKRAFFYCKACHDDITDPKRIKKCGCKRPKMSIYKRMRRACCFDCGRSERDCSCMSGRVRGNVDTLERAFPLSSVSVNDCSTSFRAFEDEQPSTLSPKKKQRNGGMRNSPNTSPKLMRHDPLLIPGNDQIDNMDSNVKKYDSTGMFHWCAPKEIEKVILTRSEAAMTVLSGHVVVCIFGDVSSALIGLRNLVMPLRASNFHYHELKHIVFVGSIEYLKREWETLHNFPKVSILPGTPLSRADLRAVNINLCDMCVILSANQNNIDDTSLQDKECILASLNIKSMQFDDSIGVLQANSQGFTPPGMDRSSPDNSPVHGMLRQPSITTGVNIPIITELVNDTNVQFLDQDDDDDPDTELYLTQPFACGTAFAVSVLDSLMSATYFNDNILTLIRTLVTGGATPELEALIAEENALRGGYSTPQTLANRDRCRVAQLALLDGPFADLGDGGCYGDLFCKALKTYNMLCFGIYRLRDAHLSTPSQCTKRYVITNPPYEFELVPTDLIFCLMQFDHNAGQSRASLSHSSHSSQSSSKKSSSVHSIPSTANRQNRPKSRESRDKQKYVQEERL

SMILES	IC50 [1] [mM]	whole-cell patch clamp of endogenous BK current in LNCaP cells; current identity [2] [µM]
CC[N+](CC)(CC)CC [TEA, tetraethyl ammonium]	1.14 ± 0.2	
CC(C)(O)[C@H]1O[C@H]2CC[C@@]3(C)[C@@](O)(CC[C@H]4Cc5c([nH]c6ccccc56)[C@@]43C)C2=CC1=O [Pax, paxillin]		1
